Reference: US6884423B1, “Antimicrobial histone H1 compositions, kits, and methods of use thereof” (Symbiotec GmbH, priority 1998, dated 2005)

Legend:
E. coli strain AB1157 [1] = test: Fractional survival of histone H1-contacted cells by colony counting
Protocol: Purified bovine histone H1 was prepared as described herein in Example 1. Cells of E. coli strain AB1157 (obtained from ATCC) were grown in NYET medium (4 grams per liter nutrient broth, 7.5 grams per liter yeast extract, and 4 grams per lither tryptone) at 37° C. E. coli cells in approximately the exponential growth phase were incubated in Sorensen buffer (41 mM Na2HPO4, 25.7 mM KH2PO4) for twenty minutes in the presence of a selected concentration of histone H1. The fractional survival of histone H1-contacted cells, relative to cells which were not contacted with histone H1 was determined by counting colonies using an automated colony counter (3M model 620). About 200 microliters of an H1-containing bacterial suspension was plated into Petri dishes by adding 10 milliliters of 57° C. medium containing 1.5% (w/w) Bacto agar. […]
Purified bovine histone H1 was prepared as described herein in Example 1. Cells of E. coli strain AB1157 were incubated in Sorensen buffer at a selected temperature for a selected period in the presence of a 1.9 micromolar histone H1 The fractional survival of histone H1-contacted cells, relative to cells not contacted with histone H1 was determined as described herein in Example 4. […] Normal human body temperature is about 37° C. […]
Purified bovine histone H1 was prepared as described herein in Example 1. Cells of E. coli strain AB1157 were incubated in Sorensen buffer at a selected temperature for a selected period in the presence of a selected concentration histone H1. In selected assays, the medium also contained between 0 and about 10% (v/v) human or bovine serum. The fractional survival of histone H1-contacted cells, relative to cells not contacted with histone H1 was determined as described herein in Example 4. […]

[2] = tested on: penicillin-resistant E. coli strain derived from strain AB1157; test: Bacteriocidal effect upon penicillin-resistant bacteria (fractional survival); format: cell-based, Escherichia coli; conditions: histone H1 in Sorensen buffer, 37° C.
Description: Cells of E. coli strain AB1157 were made penicillin-resistant by culturing them in penicillin-containing growth media over a period of several days. The resulting population was completely resistant to penicillin.

[3] = tested on: Escherichia coli strain AB1157; test: Percent reduction in colony formation (spectrum of antibiotic activity); format: cell-based; conditions: 37° C.
Protocol: (§1) Histone H1 suspended in Sorensen buffer was added to aliquots of individual bacterial cultures to achieve a final concentration of either 1.9 micromolar or 3.8 micromolar. No histone H1 was added to individual control culture aliquots. The aliquots were thereafter incubated at 37° C. for either ten minutes or forty-five minutes, and the aliquots were plated on appropriate solid or semisolid media.

Staphylococcus aureus = test: as above; format: cell-based; conditions: 37° C.
Protocol: as §1

Bacillus subtilis = test: as above; format: cell-based; conditions: Incubation time 10 minutes; [Histone H1] 1.9 micromolar; 37° C.
Protocol: as §1

Proteus mirabilis = test: as above; format: cell-based; conditions: Incubation time 10 minutes; [Histone H1] 1.9 micromolar; 37° C.
Protocol: as §1

Pseudomonas aeruginosa = test: as above; format: cell-based; conditions: 37° C.
Protocol: as §1

Bacillus megaterium = test: as above; format: cell-based; conditions: 37° C.
Protocol: as §1

Enterococcus faecalis = test: as above; format: cell-based; conditions: 37° C.
Protocol: as §1

Salmonella enteritidis = test: as above; format: cell-based; conditions: Incubation time 10 minutes; [Histone H1] 1.9 micromolar; 37° C.
Protocol: as §1

Bacillus cereus = test: as above; format: cell-based; conditions: 37° C.
Protocol: as §1

Serratia marcescens = test: as above; format: cell-based; conditions: Incubation time 10 minutes; [Histone H1] 1.9 micromolar; 37° C.
Protocol: as §1

bacterial cells = test: Toxic concentration for bacterial cells; format: cell-based
E. coli strain AB1157 [4] = test: Development of bacterial resistance to histone H1; format: cell-based, Escherichia coli; conditions: FIG. 6
Protocol: Purified bovine histone H1 is prepared as described herein in Example 1. Cells of E. coli strain AB1157 are incubated in aliquots of Sorensen buffer containing various set concentrations of histone H1. The aliquot having the highest histone H1 concentration in which cells proliferate (as indicated, for example, by turbidity of the buffer) is used to seed cultures having even higher histone H1 concentrations. This process is repeated until cells are isolated which grow at a concentration of histone H1 that is normally toxic to E. coli cells.

E. coli strain AB1157 [5] = test: Binding of histone H1 to bacteria (activity of medium pre-contacted with cells); format: cell-based, Escherichia coli; conditions: forty-five minutes pre-incubation with E. coli cells, decanted medium re-inoculated
Protocol: An aliquot of cells of E. coli strain AB1157 was incubated with histone H1 as described herein in Example 4. After forty-five minutes of incubation, cells were removed by centrifugation and decanting.

[6] = tested on: various strains of E. coli isolated from urinary tract infections; test: Exposure time dependence of antibiotic activity, urinary tract infection isolates; format: cell-based, Escherichia coli; conditions: after thirty minutes; all strains
Protocol: Histone H1 suspended in Sorensen buffer was added to aliquots of individual bacterial cultures to achieve a final concentration of either 1.9 micromolar or 3.8 micromolar. No histone H1 was added to individual control culture aliquots. […]

E. coli strain AB1157 [7] = test: Thermal stability of histone H1 (antibiotic activity after storage); format: cell-based, Escherichia coli; conditions: for fractional survival of cells: 40 micrograms per milliliter, 37° C., ten minutes
Protocol: In a first experiment, purified histone H1 was stored at −80° C. for more than thirty-six months.
In a second experiment, aliquots of purified histone H1 were separately stored at −80° C., at 4° C., and at 37° C. for twenty hours. […] The fractional survival of cells incubated with histone H1 stored at −80° C. was about 0.1%. The fractional survival of cells incubated with histone H1 stored at 4° C. was about 1%. The fractional survival of cells incubated with histone H1 stored at 37° C. was about 6%.

E. coli strain AB1157 [8] = test: Membrane damage by Sytox Green dye and flow cytometer; format: cell-based, Escherichia coli; conditions: 0.4, 0.95 and 1.9 μM histone H1, 37° C., various time intervals
Protocol: Membrane damage of E. coli cells was determined at various time intervals, using the dye Sytox Green and a flow cytometer as described (Roth et al., 1997, Appl. Env. Microbiol. 63:2421-2431).

[9] = tested on: non-cancerous eukaryotic cells
animal cells = conditions: on the order of; cited from earlier work
E. coli strain AB1157 [10] = test: Inhibition of the antibiotic activity of histone H1 by heparin; format: cell-based, Escherichia coli; conditions: 4 micrograms per milliliter histone H1, 37° C., ten minutes
Protocol: In selected assays, the incubation medium also contained a selected concentration of heparin, in the range from 0 to about 250 units per milliliter.

[11] = Incubation time 10 minutes, [Histone H1] 1.9 micromolar
[12] = Incubation time 10 minutes, [Histone H1] 3.8 micromolar
[13] = Incubation time 45 minutes, [Histone H1] 1.9 micromolar
[14] = Incubation time 45 minutes, [Histone H1] 3.8 micromolar

## histone H1
E. coli strain AB1157 [1]
  lowest H1 concentration at which significant cytotoxicity was observed: 0.24 µM
E. coli strain AB1157 [1]; 0 to about 10% (v/v) human AB serum or fetal calf serum
  dependence of antibiotic activity on serum: independent of serum concentrations at concentrations at least as high as 10% (v/v) serum
E. coli strain AB1157 [1]; 1.9 micromolar H1, 37° C.
  incubation time sufficient to achieve maximal cytotoxic effect: less than ten
E. coli strain AB1157 [1]; 1.9 micromolar histone H1, 4° C., 30° C., 37° C.
  temperature dependency of bactericidal effect: significantly greater at 37 °C than at either 4 °C or 30 °C
E. coli strain AB1157 [1]; histone H1 concentration less than 1 micromolar, twenty minutes in Sorensen buffer
  E. coli cells killed: more than 98%
[2]
  killing of penicillin-resistant cells compared with wild type cells: killed penicillin-resistant cells approximately as efficiently as it killed wild type cells
[3]; [11]
  Percent Reduction in Colony Formation: 99.6%
[3]; [12]
  Percent Reduction in Colony Formation: 99.9%
[3]; [13]
  Percent Reduction in Colony Formation: 99.7%
[3]; [14]
  Percent Reduction in Colony Formation: 100%
Staphylococcus aureus; [11]
  Percent Reduction in Colony Formation: 0.0%
Staphylococcus aureus; [12]
  Percent Reduction in Colony Formation: 0.0%
Staphylococcus aureus; [13]
  Percent Reduction in Colony Formation: 0.0%
Staphylococcus aureus; [14]
  Percent Reduction in Colony Formation: 0.0%
Bacillus subtilis
  Percent Reduction in Colony Formation: 97.4%
Proteus mirabilis
  Percent Reduction in Colony Formation: 0.0%
Pseudomonas aeruginosa; [11]
  Percent Reduction in Colony Formation: 99.6%
Pseudomonas aeruginosa; [12]
  Percent Reduction in Colony Formation: 100%
Pseudomonas aeruginosa; [13]
  Percent Reduction in Colony Formation: 100%
Pseudomonas aeruginosa; [14]
  Percent Reduction in Colony Formation: 100%
Bacillus megaterium; [11]
  Percent Reduction in Colony Formation: 93.3%
Bacillus megaterium; [12]
  Percent Reduction in Colony Formation: 91.2%
Bacillus megaterium; [13]
  Percent Reduction in Colony Formation: 92.9%
Bacillus megaterium; [14]
  Percent Reduction in Colony Formation: 99.3%
Enterococcus faecalis; [11]
  Percent Reduction in Colony Formation: 0.0%
Enterococcus faecalis; [12]
  Percent Reduction in Colony Formation: 0.0%
Enterococcus faecalis; [13]
  Percent Reduction in Colony Formation: 0.0%
Enterococcus faecalis; [14]
  Percent Reduction in Colony Formation: 0.0%
Salmonella enteritidis
  Percent Reduction in Colony Formation: >99%
Bacillus cereus; [11]
  Percent Reduction in Colony Formation: 11.8%
Bacillus cereus; [12]
  Percent Reduction in Colony Formation: 50.7%
Bacillus cereus; [13]
  Percent Reduction in Colony Formation: 42.5%
Bacillus cereus; [14]
  Percent Reduction in Colony Formation: 77.4%
Serratia marcescens
  Percent Reduction in Colony Formation: 14.0%
Bacterial cells; bacterial cells
  toxic concentration: less than 80 micrograms per milliliter
Bacterial cells; relatively low concentrations, as described herein
  concentrations that induce death of bacterial cells: 0.2 to 4 µM
E. coli strain AB1157 [4]
  development of resistance of E. coli cells to the antibiotic activity: can develop resistance
E. coli strain AB1157 [5]
  binding to bacteria: binds specifically to bacteria in a non-reversible manner
[6]
  survival: less than 3%
E. coli strain AB1157 [7]; histone H1 stored at 4° C. for twenty hours
  fractional survival of cells: about 1%
E. coli strain AB1157 [7]; histone H1 stored at 37° C. for twenty hours
  fractional survival of cells: about 6%
E. coli strain AB1157 [7]; histone H1 stored at −80° C. for twenty hours
  fractional survival of cells: about 0.1%
E. coli strain AB1157 [7]; stored at −80° C. for more than thirty-six months
  antibiotic activity after storage: not significantly decreased
E. coli strain AB1157 [8]
  fraction of the cells which exhibited membrane damage: dependent on the concentration of histone H1
[9]
  toxic concentration: more than 200 or 250 micrograms per milliliter
Animal cells
  concentrations that may induce death of animal cells: 10 to 100 µM

## heparin
E. coli strain AB1157 [10]
  heparin concentration at which histone H1 exhibited essentially no antibiotic activity: greater than 150 units per milliliter
  lowest heparin concentration that reduced the antibiotic activity of histone H1: 6.2 units per milliliter

## NC[C@H]1O[C@H](O[C@H]2[C@H](O)[C@@H](O[C@H]3O[C@H](CO)[C@@H](O)[C@H](N)[C@H]3O)[C@H](N)C[C@@H]2N)[C@H](O)[C@@H](O)[C@@H]1O [kanamycin, reference compound]
E. coli strain AB1157 [1]; 1.9 micromolar, 37° C., ten minutes, Sorensen buffer
  cytotoxicity: no measurable cytotoxicity

B1: Trypsin: Protease used to digest histone H1; tested alone as control (protein, UniProt P00760 24-246, looked up)
Serine protease 1: IVGGYTCGANTVPYQVSLNSGYHFCGGSLINSQWVVSAAHCYKSGIQVRLGEDNINVVEGNEQFISASKSIVHPSYNSNTLNNDIMLIKLKSAASLNSRVASISLPTSCASAGTQCLISGWGNTKSSGTSYPDVLKCLKAPILSDSSCKSAYPGQITSNMFCAGYLEGGKDSCQGDSGGPVVCSGKLQGIVSWGSGCAQKNKPGVYTKVCNYVSWIKQTIASN
E. coli strain AB1157 [1]; trypsin alone
  effect on survival of the bacteria: had no effect on the survival of the bacteria
